± gives the expanded uncertainty stated by the source.
Legend:
[1] = Liquid; for mass density: 293.15 K, 101.33 kPa, Vibrating tube method; for vapor or sublimation pressure: Ebulliometric method (Recirculating still)
[2] = refractive index (Na D-line) (dimensionless); settings: 293.15 K; 101.33 kPa; Liquid; Standard Abbe refractometry

vapor or sublimation pressure ([1]; 351.15 K) | vapor or sublimation pressure ([1]; 449.15 K) | Structure (SMILES) | mass density [1] | vapor or sublimation pressure ([1]; 350.15 K) | refractive index [2] | vapor or sublimation pressure ([1]; 483.15 K)
 |  | C=CC#N [acrylonitrile] | 806 ± 0.2 kg/m3 | 96.5 ± 9.7 kPa | 1.3909 ± 0.0007 | 
96.5 ± 9.7 kPa |  | CCO [ethanol] | 788.9 ± 0.2 kg/m3 |  | 1.361 ± 0.0007 | 
 | 96.5 ± 9.7 kPa | CCCCCCCO [heptan-1-ol] |  |  |  | 
 |  | O=[N+]([O-])c1ccccc1 [nitrobenzene] | 1198.8 ± 0.2 kg/m3 |  | 1.5529 ± 0.0007 | 96.5 ± 9.7 kPa

Reference: the NIST ThermoML archive (doi:10.1021/je400214b)
